Data set [1] relates to peptidase activity in T. gallinae cell-free filtrates. As to the kind of experiment: One-dimensional substrate (0.2% gelatin) SDS-PAGE zymogram of cell-free filtrates. The format is biochemical. The settings on record: clone 5895-C1/06 P49 and P130. As to the method:
(§1) For analysis in one- (1-D) and two-dimensional (2-D) zymogram and conventional SDS PAGE the filtrate was prepared in the following way: T. gallinae clonal culture was grown in Hollander fluid (HF) medium as described recently (Amin et al., Exp. Parasitol. 124 (2010), 202-208). After 24 h of incubation, the trichomonad culture was centrifuged at 3300 x g for 5 min; the pellet was washed three times in phosphate buffer saline (PBS, pH 7.2) and was then suspended in 1 ml HF medium without serum. Motile trichomonads were counted by a Neubauer cell counting chamber (Reichert, Buffalo, NY). The concentration of the inoculum was adjusted to 10^7 motile trophozoites. 10^7 trichomonad cells were grown for 3, 6, 16, 24 h in 10 ml HF medium without serum and the cell-free filtrate was prepared. The trichomonad culture was centrifuged at 3300 x g for 5 min, and then the supernatant from the culture was filtered through 0.22 µm cellulose acetate filters (Millipore, VWR). Afterwards, 1 mM PMSF, 5 µM of Pepstatin A, 1 mM TLCK and 270 µM E-64 were added to the cell-free filtrate and incubated for 30 min on ice before concentrating the proteins. Two types of filters were used to concentrate the proteins of the cell-free filtrate. Firstly, CEN-TRIPREP® Centrifugal Filter Device 3K (Millipore, Vienna, Austria) was applied to reduce the initial volume of the filtrate (15ml) to 500 µl. After that, the samples were more concentrated using Amicon® Ultra-0.5 3K centrifugal filter device (Millipore, Vienna, Austria) to obtain a final volume of 100 µl. Both types of filters were used following manufacturer's instructions. With the samples for 2-dimensional (2-D) sodium dodecyl sulphate (SDS)-polyacrylamide gel electrophoresis (PAGE) buffer was exchanged (three times) to 10 mM Tris-Cl pH 7.2 by using the same Amicon® Ultra-0,5 3K centrifugal filter device (Millipore,Vienna, Austria). For all samples the protein concentration was measured by Bradford Reagent (Fermentas, Thermo Scientific).
(§2) For one dimension (1-D) zymographic analysis, 24 µg of concentrated p 183 proteins from cell free filtrates with and without peptidase inhibitors were separated by discontinuous SDS-PAGE (8%) copolymerized with 0.2% gelatin as substrate. In parallel, the same samples were investigated by conventional 1-D SDS-PAGE (8%). After electrophoresis, the substrate gel was incubated in 2.5% Triton X-100 (Bio-Rad Laboratories GmbH, Vienna, Austria) for 1 h at room temperature to remove SDS. Subsequently the peptidases were activated by incubating the gel in zymogram development buffer (Bio-Rad Laboratories GmbH, Vienna, Austria) for 24 h at 37 °C. […]

The next data set relates to LMH monolayer. Put plainly: Cytopathic effect of T. gallinae cell-free filtrate on LMH monolayer (monolayer detachment, lesion score). Particulars: compared with filtrate without inhibitors. The format is cell-based, chicken. As to the method: Permanent chicken liver (LMH) cells were grown in Medium 199 + Earle's salts + L-Glutamine (Invitrogen/Gibco, Paisley, U.K.). The medium was supplemented with 10% of FBS, 10% Tryptose Phosphate broth, penicillin (40,000 IU/ml) and streptomycin ([…]) (all Invitrogen/Gibco, Paisley, U.K). One milliliter of the media suspension containing 1x10^6 cells was inoculated into 75 cm^2 flasks with filtered caps (Sarstedt, Wiener Neudorf, Austria) containing 6 ml medium. Cells were kept in a controlled atmosphere of 5% CO2 at 37°C and around 85-90% humidity. After 72 h of incubation, a confluent monolayer of LMH cells was obtained with an average of 7x10^6 cells per flask. Cells were passaged every three to four days depending on their density.
(§3) For the analysis on LMH monolayers cell-free filtrate was prepared in the following way: 10^7 cells of a clonal culture of T. gallinae were incubated at 37°C for 24 h in the same medium as used for growth of LMH. Before incubation the protozoal cells were washed three times in PBS, (pH 7.2), trichomonad culture was centrifuged at 3300 x g for 5 min and then the supernatant from the culture was filtered through 0.22 µm cellulose acetate filters (Millipore, VWR).
Each monolayer was investigated visually by an inverted 158 light microscope to detect the effect of the cell-free filtrates on LMH monolayer. Assesment of the monolayer was performed as recently described (Amin et al., Vet.Parasitol. (2011), doi: 10.1016/j.vetpar.2011.11.037).
Firstly, preliminary experiments were done to establish the concentration of each peptidase inhibitor which was not toxic to the monolayer cell culture. In these initial experiments different concentrations of the following peptidase inhibitors were added to not-infected monolayer: 0.2 mM, 0.5 mM, 1 mM Phenylmethylsulfonyl fluoride (PMSF) as serine peptidase inhibitor, 1 µM, 2.5 µM, 5 µM pepstatin A as aspartic peptidase inhibitor, 135 µM, 540 µM, 1 mM N-α-p-Tosyl-L-Lysine chloromethyl ketone (TLCK) as cysteine and some serine peptidase inhibitor, and 70 µM 140 µM, 270 µM L-3-carboxyl-2,3-trans-epoxysuccinylleucylamido (4-guanidino) butane (E-64) as cysteine peptidase inhibitor (all purchased from Sigma-Aldrich, Steinheim, Germany).

Data set [2] concerns embryonated spf chicken eggs. As to the kind of experiment: Toxicity of peptidase inhibitors in PBS to non-infected spf chicken embryos (control groups). The format is in vivo. As to the method:
For each treatment, ten 9-day old embryonated spf chicken eggs were inoculated with 200 µl of the individual sample of protozoa suspended in sterile PBS via the allantoic cavity following a standard egg inoculation procedure (Senne, 1998). In addition, ten eggs were inoculated in the same way with sterile PBS with and without an adjusted concentration of peptidase inhibitors, to be used as a control. The inoculated eggs were sealed with melted paraffin and incubated at 37°C at a relative humidity of 55-60%. The survival of the embryos was monitored by candling the eggs daily. At the end of the incubation period (10 days) the eggs were placed at -20°C for two hours to kill the embryos and to avoid hatching. The allantoic fluid was harvested and examined microscopically for the detection of flagellates, before the embryos were necropsied. Afterwards, samples from different organs (liver, heart, lung, proventriculus, gizzard, kidney, spleen, and intestine) were preserved in 10% buffered neutral formalin and later on embedded in paraffin wax for histological examination. […] Additionally, samples from liver and gut were preserved at -20°C for polymerase chain reaction (PCR). DNA was extracted from tissue samples applying the Dneasy® Tissue Kit (Qiagen, Vienna, Austria), according to the manufacturer instructions. […]

For data set [3], the system named is T. gallinae clone 5895-C1/06 P18. As to the kind of experiment: Infection of spf chicken embryos with T. gallinae coincubated with peptidase inhibitors (mortality, necropsy, histology, PCR, ISH). The format is in vivo, Trichomonas gallinae. The settings on record: for detection of trichomonad nucleic acid by ISH / histopathological examination of different organs of infected embryos: spf chicken embryos. As to the method:
(§4) The axenic clonal cultures of T. gallinae were grown in Hollander fluid (HF) medium, as described above (Amin et al., 2010). At first, clonal cultures which underwent only a few passages were investigated. Higher passages were obtained by transferring 1 ml of the respective culture into 9 ml of fresh HF medium every 48 h. Assessing the virulence as well as the effect of peptidase inhibitors was performed with an equal passage number (P18). After 24 h of incubation, the cultures were centrifuged at 3300 x g for 5 min (Hettich Rotanta 460, Tuttlingen, Germany). The pellet was washed three times by addition of phosphate buffer saline (PBS, pH 7.2) followed by centrifugation. For counting cells were suspended in 1 ml PBS buffer and motile trichomonads were determined by a Neubauer cell counting chamber (Reichert, Buffalo, NY, USA). The concentration of the inoculum was adjusted to contain approximately 5x10^6 actively motile trophozoites suspended in 200 µl PBS buffer. The viability of trichomonad cells was evaluated using trypan blue staining.
For each treatment, ten 9-day old embryonated spf chicken eggs were inoculated with 200 µl of the individual sample of protozoa suspended in sterile PBS via the allantoic cavity following a standard egg inoculation procedure (Senne, 1998). In addition, ten eggs were inoculated in the same way with sterile PBS with and without an adjusted concentration of peptidase inhibitors, to be used as a control. The inoculated eggs were sealed with melted paraffin and incubated at 37°C at a relative humidity of 55-60%. The survival of the embryos was monitored by candling the eggs daily. At the end of the incubation period (10 days) the eggs were placed at -20°C for two hours to kill the embryos and to avoid hatching. The allantoic fluid was harvested and examined microscopically for the detection of flagellates, before the embryos were necropsied. Afterwards, samples from different organs (liver, heart, lung, proventriculus, gizzard, kidney, spleen, and intestine) were preserved in 10% buffered neutral formalin and later on embedded in paraffin wax for histological examination. […] Additionally, samples from liver and gut were preserved at -20°C for polymerase chain reaction (PCR). DNA was extracted from tissue samples applying the Dneasy® Tissue Kit (Qiagen, Vienna, Austria), according to the manufacturer instructions. PCR was performed following the protocol of Grabensteiner and Hess (Vet. Parasitol. 142 (2006), 223-230). The embryos that died during the experiments were exposed to the same examination procedures. During necropsy autoclaved scissors and disposable tweezers were used for collecting the samples to avoid cross contamination.

Data set [4] relates to peptidase activity in T. gallinae cell-free filtrates. As to the kind of experiment: Conventional 1-D SDS-PAGE of cell-free filtrates with and without peptidase inhibitors. It counts as biochemical. The settings on record: clone 5895-C1/06 P49. As for the experimental part: as §1, §2
The next data set deals with T. gallinae trophozoites. As to the kind of experiment: Viability of trichomonads with peptidase inhibitors (trypan blue staining). The format is cell-based. The settings on record: read-out: optimum concentration that had no effect on the viability of T. gallinae trophozoites. As for the experimental part: as §4
For the next data set, the system named is Entamoeba histolytica. The settings on record: SCID mice; preincubation of the trophozoites with the inhibitor; cited from earlier work.
In another data set the test system is LMH cells. As to the kind of experiment: CellTiter 96 aqueous one solution cytotoxicity assay of cell-free filtrate on LMH cells. It counts as cell-based, chicken. The settings on record: Gallus gallus; 270 µM E-64; 72 h of incubation; clone 5895-C1/06, passage 18; filtrate without E-64: 70.9%; read-out: cytotoxicity of the cell-free filtrate on LMH cells in the presence of the inhibitor. As to the method:
as §3
In order to investigate the cytotoxicity of cell-free filtrate on cell culture, CellTiter 96® aqueous one solution cell proliferation assay (Promega Corporation, Madison, USA) was used following manufacturer's instructions. The cell-free filtrate from 10^7 trichomonad cells was prepared as described above and 270 µM of E-64 as cysteine peptidase inhibitor was added to cell-free filtrate before its incubation with the monolayer. Cytotoxicity assay was performed as described recently by Amin et al. (2011).

Square brackets hold non-standard residues; d marks the D form. Peptide text beside a SMILES is read from it. * marks the point of attachment. Sta = CC(C)C[C@H](N)[C@@H](O)CC(=O)O; Isovaleryl = CC(C)CC(=O)*

For `Cc1ccc(S(=O)(=O)N[C@@H](CCCCN)C(=O)CCl)cc1` [TLCK, N-α-p-Tosyl-L-Lysine chloromethyl ketone], the “proteolytic bands on zymograms of cell-free filtrates” value in data set [1] (1 mM TLCK) is listed as “No proteolytic bands were observed”. In addition, in the data set with LMH monolayer (135 µM TLCK added to cell-free filtrate of clone 5895-C1/06), the “cytopathic effects induced by trichomonads (detachment of the monolayer)” value (from here on “cytopathic effects induced”) is reported as “partially inhibited cytopathic effects”. For the same compound, in data set [2] (675 µM TLCK in PBS), the “cytotoxic effect on the embryos, mortalities or pathomorphological changes in negative control groups” value is listed as “no cytotoxic effect on the embryos”. Also, in data set [3] (675 µM TLCK coincubated), the “PCR results from the liver and gut of infected embryos” value is given as “positive PCR results”. Further, the “PCR results: infiltration of the flagellate to the liver” value in data set [3] (675 µM TLCK, compared with E-64) is given as “more distinct inhibitory effect on the infiltration of the flagellate to the liver than E-64”. In data set [3] (675 µM TLCK), the “detection of trichomonad nucleic acid by ISH” value is given as “nucleic acid of trichomonds was demonstrated by ISH in the hepatic parenchyma” and the “histopathological examination of different organs of infected embryos” value is recorded as “no histological changes”. In addition, in data set [4] (1 mM TLCK), the “band pattern in conventional SDS-PAGE” value is “pattern of sharp bands”. Moreover, in the data set on T. gallinae trophozoites, the MNTC stood at 675 µM.

For `O=S(=O)(F)Cc1ccccc1` [PMSF, Phenylmethylsulfonyl fluoride], in data set [1] (1 mM PMSF), the “proteolytic bands on zymograms of cell-free filtrates” value was “same proteolytic regions as the sample without inhibitors”. For the same compound, the “cytopathic effects induced” value in the data set on LMH monolayer (1 mM PMSF added to cell-free filtrate of clone 5895-C1/06) is “partially inhibited cytopathic effects”. In addition, the “band pattern in conventional SDS-PAGE” value in data set [4] (1 mM PMSF) was “this pattern was not prominent”.

`CC(C)CC(NC(=O)C1OC1C(=O)O)C(=O)NCCCCNC(=N)N` [E-64, L-3-carboxyl-2,3-trans-epoxysuccinylleucylamido (4-guanidino) butane]: the “proteolytic bands on zymograms of cell-free filtrates” value in data set [1] (270 µM E-64) was “No proteolytic bands were observed”. Also, the “liver abscesses produced by Entamoeba histolytica” value in the data set on Entamoeba histolytica was “greatly reduced”. For the same compound, in the data set with LMH monolayer (270 µM E64 added to cell-free filtrate of clone 5895-C1/06), the “cytopathic effects induced” value is “best inhibition”. Moreover, in the data set with LMH monolayer (270 µM E64 added to cell-free filtrate of clone 5895-C1/06, listed as E64), the “cytopathic effects induced” value is recorded as “partially inhibited cytopathic effects”. Besides, the “cytotoxic effect on the embryos, mortalities or pathomorphological changes in negative control groups” value in data set [2] (270 µM E-64 in PBS) is “no cytotoxic effect on the embryos”. Moreover, in data set [3] (270 µM E-64), the “PCR results: infection in the presence versus absence of inhibitor” value is “no considerable differences”, the “detection of trichomonad nucleic acid by ISH” value was “nucleic acid of trichomonds was demonstrated by ISH in the hepatic parenchyma” and the “histopathological examination of different organs of infected embryos” value is reported as “no histological changes”. Further, the “PCR results from the liver and gut of infected embryos” value in data set [3] (270 µM E-64 coincubated) was “positive PCR results”. Besides, the cytotoxicity at 270 µM with LMH cells turned out to be 37.1%. For the same compound, the “band pattern in conventional SDS-PAGE” value in data set [4] (270 µM E-64) is given as “pattern of sharp bands”. Besides, in the data set on T. gallinae trophozoites, the MNTC was 270 µM.

On to `CC(C)CC(=O)N[C@H](C(=O)N[C@H](C(=O)N[C@@H](CC(C)C)[C@@H](O)CC(=O)N[C@@H](C)C(=O)N[C@@H](CC(C)C)[C@@H](O)CC(=O)O)C(C)C)C(C)C` [Pepstatin A, pepstatin A] (Isovaleryl-VV[Sta]A[Sta]-OH), for which the “proteolytic bands on zymograms of cell-free filtrates” value in data set [1] (5 µM Pepstatin A) is listed as “same proteolytic regions as the sample without inhibitors”. Further, the “cytopathic effects induced” value in the data set with LMH monolayer (5 µM Pepstatin A added to cell-free filtrate of clone 5895-C1/06) was “no inhibitory effect”. For the same compound, the “band pattern in conventional SDS-PAGE” value in data set [4] (5 µM Pepstatin A) is listed as “this pattern was not prominent”.
